Data: the supplement of paper PMC10307832

How the values were obtained:
Test in all cases: relative viability (nuclei count vs DMSO), 5 days (fraction); higher = more cells survive
CAP-232 + Bortezomib = compound: C[C@H]([C@@H](C(=O)N)NC(=O)[C@@H]1CSSC[C@@H](C(=O)N[C@H](C(=O)N[C@@H](C(=O)N[C@H](C(=O)N1)CCCCN)CC2=CNC3=CC=CC=C32)CC4=CC=C(C=C4)O)NC(=O)[C@@H](CC5=CC=CC=C5)N)O [CAP-232] + CC(C)C[C@H](NC(=O)[C@H](Cc1ccccc1)NC(=O)c1cnccn1)B(O)O [Bortezomib] (partner 0.002 µM)
Method in brief: (§1)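 Nuclei were stained with Hoechst during a one-step fixation (final 0.05% Triton X-100, 1% formaldehyde, 1 ug/ml Hoechst) carried out 5 days after dosing, then counted on 4× images. The cells, lung cancer lines in 1536-well plates, had been dosed by pin tool the day after seeding with one drug alone or a fixed anchor-drug dose plus five library-drug doses (not always all listed) in √10 steps. Relative viability is the nuclei count in treated wells divided by that in vehicle wells, and each value is the median of duplicate plates.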

CAP-232 + OSI-027 = compound: C[C@H]([C@@H](C(=O)N)NC(=O)[C@@H]1CSSC[C@@H](C(=O)N[C@H](C(=O)N[C@@H](C(=O)N[C@H](C(=O)N1)CCCCN)CC2=CNC3=CC=CC=C32)CC4=CC=C(C=C4)O)NC(=O)[C@@H](CC5=CC=CC=C5)N)O [CAP-232] + COc1cccc2cc(-c3nc([C@H]4CC[C@H](C(=O)O)CC4)n4ncnc(N)c34)[nH]c12 [OSI-027] (partner 0.5 µM)
Method in brief: as §1

CAP-232 + Lapatinib = compound: C[C@H]([C@@H](C(=O)N)NC(=O)[C@@H]1CSSC[C@@H](C(=O)N[C@H](C(=O)N[C@@H](C(=O)N[C@H](C(=O)N1)CCCCN)CC2=CNC3=CC=CC=C32)CC4=CC=C(C=C4)O)NC(=O)[C@@H](CC5=CC=CC=C5)N)O [CAP-232] + CS(=O)(=O)CCNCc1ccc(-c2ccc3ncnc(Nc4ccc(OCc5cccc(F)c5)c(Cl)c4)c3c2)o1 [Lapatinib] (partner 2 µM)
Method in brief: as §1

CAP-232 + Pictilisib = compound: C[C@H]([C@@H](C(=O)N)NC(=O)[C@@H]1CSSC[C@@H](C(=O)N[C@H](C(=O)N[C@@H](C(=O)N[C@H](C(=O)N1)CCCCN)CC2=CNC3=CC=CC=C32)CC4=CC=C(C=C4)O)NC(=O)[C@@H](CC5=CC=CC=C5)N)O [CAP-232] + CS(=O)(=O)N1CCN(Cc2cc3nc(-c4cccc5[nH]ncc45)nc(N4CCOCC4)c3s2)CC1 [Pictilisib] (partner 1 µM)
Method in brief: as §1

CAP-232 + Navitoclax = compound: C[C@H]([C@@H](C(=O)N)NC(=O)[C@@H]1CSSC[C@@H](C(=O)N[C@H](C(=O)N[C@@H](C(=O)N[C@H](C(=O)N1)CCCCN)CC2=CNC3=CC=CC=C32)CC4=CC=C(C=C4)O)NC(=O)[C@@H](CC5=CC=CC=C5)N)O [CAP-232] + CC1(C)CCC(c2ccc(Cl)cc2)=C(CN2CCN(c3ccc(C(=O)NS(=O)(=O)c4ccc(N[C@H](CCN5CCOCC5)CSc5ccccc5)c(S(=O)(=O)C(F)(F)F)c4)cc3)CC2)C1 [Navitoclax] (partner 0.5 µM)
Method in brief: as §1

Cell Line | relative viability (CAP-232 + Bortezomib; first compound 0.4 µM) | relative viability (CAP-232 + Bortezomib; first compound 1.265 µM) | relative viability (CAP-232 + Bortezomib; first compound 4 µM) | relative viability (CAP-232 + Bortezomib; first compound 12.65 µM) | relative viability (CAP-232 + OSI-027; first compound 0.4 µM) | relative viability (CAP-232 + OSI-027; first compound 1.265 µM) | relative viability (CAP-232 + OSI-027; first compound 4 µM) | relative viability (CAP-232 + OSI-027; first compound 12.65 µM) | relative viability (CAP-232 + Lapatinib; first compound 0.4 µM) | relative viability (CAP-232 + Lapatinib; first compound 1.265 µM) | relative viability (CAP-232 + Lapatinib; first compound 4 µM) | relative viability (CAP-232 + Lapatinib; first compound 12.65 µM) | relative viability (CAP-232 + Pictilisib; first compound 0.4 µM) | relative viability (CAP-232 + Pictilisib; first compound 1.265 µM) | relative viability (CAP-232 + Pictilisib; first compound 4 µM) | relative viability (CAP-232 + Pictilisib; first compound 12.65 µM) | relative viability (CAP-232 + Navitoclax; first compound 0.4 µM) | relative viability (CAP-232 + Navitoclax; first compound 1.265 µM) | relative viability (CAP-232 + Navitoclax; first compound 4 µM) | relative viability (CAP-232 + Navitoclax; first compound 12.65 µM)
ABC-1 | 0.296 | 0.306 | 0.222 | 0.264 | 0.455 | 0.421 | 0.481 | 0.271 | 1 | 1.12 | 0.887 | 1.26 | 0.616 | 0.878 | 0.745 | 0.411 |  |  |  | 
NCI-H1651 | 1.01 | 0.939 | 1.02 | 0.953 | 0.721 | 0.703 | 0.89 | 0.522 | 0.944 | 0.834 | 0.913 | 0.484 | 0.666 | 0.685 | 0.624 | 0.368 | 1.02 | 0.969 | 1.08 | 0.535
201T | 1.17 | 1.04 | 1.05 | 1.1 | 0.749 | 0.669 | 0.722 | 0.549 | 1.11 | 0.98 | 1.04 | 1.04 | 0.765 | 0.657 | 0.678 | 0.713 | 1.23 | 1.19 | 1.12 | 1.22
NCI-H3122 | 1.01 | 1.05 | 0.896 | 1 | 0.629 | 1.01 | 1.07 | 0.474 | 1 | 1.09 | 1 | 1.05 | 0.399 | 0.573 | 0.568 | 0.566 | 1.01 | 0.988 | 1.02 | 1.03
A549 |  |  |  |  |  |  |  |  | 1.1 | 1 | 1.05 | 0.42 | 0.591 | 0.472 | 0.563 | 0.203 | 1.33 | 1.19 | 1.25 | 0.482
NCI-H441 | 0.429 | 0.357 | 0.392 | 0.436 | 0.527 | 0.683 | 0.602 | 0.686 |  |  |  |  | 0.411 | 0.462 | 0.412 | 0.385 | 0.554 | 0.756 | 0.717 | 0.641
LCLC-103H | 1.33 | 0.927 | 1.16 | 1 | 0.481 | 0.375 | 0.496 | 0.464 |  |  |  |  | 0.707 | 0.564 | 0.536 | 0.595 |  |  |  | 
ChaGo-K-1 | 1.45 | 0.768 | 1.06 | 0.784 | 0.65 | 0.504 | 0.678 | 0.6 |  |  |  |  | 1 | 0.51 | 0.703 | 0.256 | 1.43 | 0.818 | 0.973 | 0.734
